Laboratory results as given in patent EP0799174B1, “BIOCIDAL ALCOHOLS, THEIR PRODUCTION AND THEIR USE” (SCHÜLKE & MAYR GMBH, priority 1994, dated 1996).

How the values were obtained:
Format in all cases: cell-based
[1] = tested on: Aspergillus niger ATCC 6275; assay: MIC values, water-insoluble (covered area of plates, solutions in acetone); conditions: solution in acetone, 100% means no inhibiting action
Excerpt: (§1) [table] The size of the covered areas of the plates is given in %; 100% means no inhibiting action.

[2] = tested on: Candida albicans ATCC 10231; assay: as above; conditions: solution in acetone, 100% means no inhibiting action
Excerpt: as §1

[3] = tested on: Staphylococcus aureus ATCC 6538; assay: as above; conditions: solution in acetone, 100% means no inhibiting action
Excerpt: as §1

[4] = tested on: Escherichia coli ATCC 11229; assay: as above; conditions: solution in acetone, 100% means no inhibiting action
Excerpt: as §1

[5] = tested on: P. vulgaris
Excerpt: (§2) Standard formulation: • aromatic alcohol 1 part • dimethylformamide 6 parts [table] The diameters of the inhibition zones are given in mm.

[6] = tested on: Candida albicans ATCC 10231; assay: Plate diffusion test (agar diffusion test); conditions: aromatic alcohol 1 part, dimethylformamide 6 parts
Excerpt: as §2

[7] = tested on: Pseudomonas aeruginosa ATCC 15442; assay: Plate diffusion test (agar diffusion test); conditions: aromatic alcohol 1 part, dimethylformamide 6 parts
Excerpt: as §2

[8] = tested on: Staphylococcus aureus ATCC 6538; assay: Plate diffusion test (agar diffusion test); conditions: aromatic alcohol 1 part, dimethylformamide 6 parts
Excerpt: as §2

[9] = tested on: Escherichia coli ATCC 11229; assay: Plate diffusion test (agar diffusion test); conditions: aromatic alcohol 1 part, dimethylformamide 6 parts
Excerpt: as §2

Row | SMILES | size of the covered areas of the plates, A. niger ([1]; concentration 0.25 % by wt.) [%] | size of the covered areas of the plates, A. niger ([1]; concentration 0.50 % by wt.) [%] | size of the covered areas of the plates, A. niger ([1]; concentration 1.00 % by wt.) [%] | size of the covered areas of the plates, C. albicans ([2]; concentration 0.25 % by wt.) [%] | size of the covered areas of the plates, C. albicans ([2]; concentration 0.50 % by wt.) [%] | size of the covered areas of the plates, C. albicans ([2]; concentration 1.00 % by wt.) [%] | size of the covered areas of the plates, S. aureus ([3]; concentration 0.25 % by wt.) [%] | size of the covered areas of the plates, S. aureus ([3]; concentration 0.50 % by wt.) [%] | size of the covered areas of the plates, S. aureus ([3]; concentration 1.00 % by wt.) [%] | size of the covered areas of the plates, E. coli ([4]; concentration 0.25 % by wt.) [%] | size of the covered areas of the plates, E. coli ([4]; concentration 0.50 % by wt.) [%] | size of the covered areas of the plates, E. coli ([4]; concentration 1.00 % by wt.) [%] | diameters of the inhibition zones, P. vulgaris [5] [mm] | diameters of the inhibition zones, C. albicans [6] [mm] | diameters of the inhibition zones, P. aeruginosa [7] [mm] | diameters of the inhibition zones, S. aureus [8] [mm] | diameters of the inhibition zones, E. coli [9] [mm] | other results
1 | CCC(CO)Cc1ccccc1Cl (centres unmarked) [Alcohol 9] | 100 | 90 | 20 | 100 | 100 | 80 | 100 | 100 | 80 | 100 | 100 | 100 | 0 | 15 | 0 | 15 | 11 | 
2 | CCC(CO)Cc1ccc(Cl)cc1 (centres unmarked) [Alcohol 10] | 90 | 70 | 10 | 100 | 90 | 10 | 100 | 100 | 10 | 100 | 100 | 100 | 0 | 15 | 0 | 14 | 11 | size of the covered areas of the plates, A. niger ([1]; concentration 0.125 % by wt.): 100%; size of the covered areas of the plates, C. albicans ([2]; concentration 0.125 % by wt.): 100%; size of the covered areas of the plates, S. aureus ([3]; concentration 0.125 % by wt.): 100%; size of the covered areas of the plates, E. coli ([4]; concentration 0.125 % by wt.): 100%
3 | CCC(CO)Cc1ccc(Cl)c(Cl)c1 (centres unmarked) [Alcohol 11] | 100 | 70 | 10 | 100 | 80 | 10 | 100 | 90 | 5 | 100 | 100 | 90 | 0 | 13 | 0 | 17 | 0 | 
4 | CCC(CO)Cc1ccccc1C (centres unmarked) [Alcohol 12] |  | 100 | 80 |  | 100 | 80 |  | 100 | 90 |  | 100 | 100 | 13 | 22 | 15 | 20 | 17 | 
5 | CCC(CO)Cc1ccc(C)cc1 (centres unmarked) [Alcohol 13] | 100 | 90 | 20 | 100 | 100 | 90 | 100 | 100 | 90 | 100 | 100 | 95 | 14 | 19 | 13 | 16 | 13 | 
6 | CCC(CO)Cc1ccc(C)c(C)c1 (centres unmarked) [Alcohol 14] | 90 | 80 | 10 | 100 | 100 | 20 | 100 | 90 | 30 | 100 | 100 | 100 | 0 | 22 | 18 | 18 | 15 | size of the covered areas of the plates, A. niger ([1]; concentration 0.125 % by wt.): 100%; size of the covered areas of the plates, C. albicans ([2]; concentration 0.125 % by wt.): 100%; size of the covered areas of the plates, S. aureus ([3]; concentration 0.125 % by wt.): 100%; size of the covered areas of the plates, E. coli ([4]; concentration 0.125 % by wt.): 100%
7 | CCC(CO)Cc1cccc(OC)c1 (centres unmarked) [Alcohol 15] |  | 100 | 90 |  | 100 | 100 |  | 100 | 100 |  | 100 | 100 | 18 | 23 | 15 | 18 | 18 | 
8 | CCC(CO)Cc1ccc(OC)c(OC)c1 (centres unmarked) [Alcohol 16] |  |  |  |  |  |  |  |  |  |  |  |  | 17 | 28 | 18 | 18 | 17 | 
9 | C=CCC(CO)Cc1ccccc1 (centres unmarked) [Alcohol 17] |  | 100 | 80 |  | 100 | 100 |  | 100 | 100 |  | 100 | 90 | 13 | 17 | 12 | 16 | 13 | 
